Test results reported in patent US12337004B2, “Coumarin-modified androgens for the treatment of prostate cancer” (Health Research, Inc., priority 2019, dated 2025).

Legend:
3α-oxidoreductase = test: LC-MS/MS of CaP cells treated with DIOL-17C; type: in vitro ADME
VCaP cells = test: MTT cell growth, VCaP; type: cell-based
Description: (§1) Identification of a 3α-oxidoreductase inhibitors: Various non-steroidal compounds were tested for anti-neoplastic activity by screening against PC-3 CaP cells. Coumarin-labeled androgens were developed to track changes in androgen metabolism pathways in response to castration or androgen metabolism inhibition using in vitro and in vivo CaP cell models.
(§2) VCaP, CWR-R1 and PC-3 cells were treated for six days with complete culture media (CM), serum-free culture media (SFM), bicalutamide (Bic) at 10 μM, the coumarin C at 20 μM, DHT at 10 nM, DHT-17C at 20 nM and DHT-3C at 20 nM (FIG. 20). […] MTT analysis was performed to compare cell growth impairment of VCaP cells treated with DHT-17C versus enzalutamide. Cells were treated with DHT-17C at 1 nM, 12 nM, 20 nM, 50 nM or 100 nM concentrations, or enzalutamide at 1 μM, 12 μM, 20 μM, 50 μM or 100 μM concentrations. […] MTT performed using ezanlutamide (20 uM) or DHT-17C (50 nM) treated mutant AR and AR-V7 positive CWR-R1 cells supported VCaP MTT data (FIG. 22).

RDH16-YFP [1] = biological target: T1, RDH16-YFP (Homo sapiens, UniProt O75452); test: ImageStream competition for RDH16-YFP; type: cell-based; conditions: PC-3 cells that stably expressed RDH16-YFP
T1 construct: expressed in transfected cells; host or cells: PC-3
T1 sequence (O75452 1-317): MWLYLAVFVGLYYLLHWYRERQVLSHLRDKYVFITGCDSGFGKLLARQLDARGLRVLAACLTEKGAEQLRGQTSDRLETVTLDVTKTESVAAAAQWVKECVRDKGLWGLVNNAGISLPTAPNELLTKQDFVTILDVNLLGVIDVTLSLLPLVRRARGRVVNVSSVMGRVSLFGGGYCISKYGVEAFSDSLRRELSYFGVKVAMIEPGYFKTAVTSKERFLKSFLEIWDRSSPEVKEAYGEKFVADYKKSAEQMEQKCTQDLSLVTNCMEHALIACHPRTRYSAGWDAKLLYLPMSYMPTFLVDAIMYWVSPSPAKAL
Description: (§3) ImageStream (ImageStream^X-MKII Flow Cytometer [Amnis, Seattle, WA]) is a hybrid technique that combines the statistical power of flow cytometry and the imaging capability of fluorescence microscopy that was adapted to study simultaneously DIOL-17C compartmental localization and activity. ImageStream data were normalized against single-stained controls and analyzed using Image Data Exploration and Analysis Software (IDEAS; Amnis). The similarity score was measured by comparing two images of the same cell pixel by pixel. If the similarity score was >0, the two objects (RDH16-YFP and DIOL-17C) were co-localized.

RDH16-YFP [2] = biological target: T1, RDH16-YFP; test: ImageStream co-localization with RDH16-YFP; type: cell-based; conditions: PC-3-RDH16-YFP cells
Description: as §3

DU145 cells = test: MTT cell growth, DU145; type: cell-based; conditions: AR-negative
AR-GFP [3] = biological target: T2, AR-GFP (Homo sapiens, UniProt P10275); test: ImageStream nuclear co-localization with AR-GFP; type: cell-based; conditions: VCaP-AR-GFP and PC-3-AR-GFP cells
T2 construct: expressed in transfected cells; host or cells: VCaP, PC-3 (also LAPC-4, CWR-R1, 22Rv1, DU145)
T2 sequence (P10275 1-920): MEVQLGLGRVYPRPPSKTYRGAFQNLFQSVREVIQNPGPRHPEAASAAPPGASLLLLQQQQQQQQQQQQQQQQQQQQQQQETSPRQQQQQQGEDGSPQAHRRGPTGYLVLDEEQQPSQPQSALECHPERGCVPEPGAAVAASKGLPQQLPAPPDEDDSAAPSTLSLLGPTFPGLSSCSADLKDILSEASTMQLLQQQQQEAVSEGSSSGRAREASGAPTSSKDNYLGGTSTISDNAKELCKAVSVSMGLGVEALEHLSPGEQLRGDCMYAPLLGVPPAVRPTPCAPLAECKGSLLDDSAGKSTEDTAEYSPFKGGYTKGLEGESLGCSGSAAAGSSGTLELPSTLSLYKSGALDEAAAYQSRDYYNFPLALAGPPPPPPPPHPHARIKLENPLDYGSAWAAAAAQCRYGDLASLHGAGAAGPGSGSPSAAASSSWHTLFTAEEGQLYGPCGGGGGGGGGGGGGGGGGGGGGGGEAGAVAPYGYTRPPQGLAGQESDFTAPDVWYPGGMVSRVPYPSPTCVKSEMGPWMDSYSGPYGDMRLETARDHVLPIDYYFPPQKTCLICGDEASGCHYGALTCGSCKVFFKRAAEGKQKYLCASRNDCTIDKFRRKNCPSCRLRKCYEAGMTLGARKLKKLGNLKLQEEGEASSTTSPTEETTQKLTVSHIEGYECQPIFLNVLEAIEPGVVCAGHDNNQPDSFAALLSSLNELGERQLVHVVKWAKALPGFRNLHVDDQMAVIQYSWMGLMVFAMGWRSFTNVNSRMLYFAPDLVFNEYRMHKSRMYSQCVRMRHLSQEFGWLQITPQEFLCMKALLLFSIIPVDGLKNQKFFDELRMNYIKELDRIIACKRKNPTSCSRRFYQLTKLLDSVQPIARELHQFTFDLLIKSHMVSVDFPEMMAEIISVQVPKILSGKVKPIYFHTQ
Source text: Androgen-sensitive AR-positive LAPC-4 and VCaP, castration-recurrent and AR-positive CWR-R1 and CWR-22rv1 (22rv1), and AR-negative PC-3 and DU145 cells were transfected with either an empty pCMV expression plasmid (control) or a pCMV plasmid that encoded a wild-type AR tagged with a C-terminal green fluorescent protein (GFP; AR-GFP). AR-positive CaP cell lines were transfected with AR-GFP to assess if DHT-17C or DHT-3C co-localized with AR and translocated to the nucleus.
AR positive CaP cell lines were treated for 16 hours with androgen-free, serum-free complete media (SFM) alone, or SFM that contained 20 nM or 50 nM fluorescent-androgens or C alone. The time points were chosen to measure differences in uptake of the fluorescent-androgens and nuclear or cytosolic localization of the fluorescent-androgens and/or AR-GFP.
Serum-free complete media (SFM)^2 was used to androgen deprive cells.

KLK2 [4] = test: qRT-PCR of AR-regulated gene KLK2; type: cell-based; conditions: 24 hours; VCaP, LAPC-4, LNCaP, CWR-R1 and 22rv1 cells
LAPC-4 cells = test: MTT cell growth, LAPC-4; type: cell-based; conditions: six days; data not shown
AR-GFP [5] = biological target: T2, AR-GFP; type: cell-based; conditions: DHT-17C versus enzalutamide
Source text: (§4) ImageStream was used to perform competition studies between DHT-17C and enzalutamide for AR-GFP or AR-V2 to establish that DHT-17C targets the AR-LBD.

LNCaP cells = test: MTT cell growth, LNCaP; type: cell-based; conditions: six days; data not shown
AR-V2 = biological target: T3, AR-V2 (Homo sapiens, UniProt P10275); type: cell-based; conditions: DHT-17C versus enzalutamide
T3 construct: stably expressed AR170 LBD only with splice variant V2 (AR-V2-GFP); expressed in transfected cells; host or cells: VCaP, PC-3
T3 sequence (P10275 1-388 isoform P10275-2): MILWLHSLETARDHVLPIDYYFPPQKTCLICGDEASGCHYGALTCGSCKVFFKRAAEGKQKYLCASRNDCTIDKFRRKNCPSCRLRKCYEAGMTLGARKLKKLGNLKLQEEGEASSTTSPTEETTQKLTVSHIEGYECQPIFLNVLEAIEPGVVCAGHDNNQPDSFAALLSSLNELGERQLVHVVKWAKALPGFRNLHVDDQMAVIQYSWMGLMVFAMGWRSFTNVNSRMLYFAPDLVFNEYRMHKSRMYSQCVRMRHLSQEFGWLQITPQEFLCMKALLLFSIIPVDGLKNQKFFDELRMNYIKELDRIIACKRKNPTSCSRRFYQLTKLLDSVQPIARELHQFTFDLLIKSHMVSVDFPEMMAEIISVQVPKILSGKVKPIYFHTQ
Source text: as §4

[6] = system: 293 human kidney cell line; test: MTT cell growth, 293; type: cell-based; conditions: non-CaP cell line
PC-3 cells = test: MTT cell growth, AR-negative PC-3; type: cell-based; conditions: six days, 20 nM
Description: as §1, §2

CWR-R1 cells = test: MTT cell growth, CWR-R1; type: cell-based, human; conditions: six days
Description: as §1, §2

AR-V2-GFP = biological target: T4, AR-V2-GFP (Homo sapiens, UniProt P10275); test: ImageStream co-localization with AR-V2-GFP; type: cell-based; conditions: VCaP and PC-3 cells that stably expressed AR-V2-GFP
T4 construct: stably expressed AR170 LBD only with splice variant V2 (AR-V2-GFP); expressed in transfected cells; host or cells: VCaP, PC-3
T4 sequence (P10275 1-388 isoform P10275-2): T3 sequence (P10275 1-388 isoform P10275-2)
Description: ImageStream studies were repeated using VCaP and PC-3 cells that stably expressed AR-V2 (splice-variant that lacked the N-terminus) with C-terminal GFP (AR-V2-GFP). […] ImageStream data was confirmed using immunoprecipation (IP) studies performed with a DHT-targeted antibody.
Serum-free complete media (SFM)^2 was used to androgen deprive cells. PC-3 cells that contained empty plasmid were treated with SFM alone, SFM with C or SFM with DHT-3C.

[7] = system: CV-1 monkey kidney cell line; test: MTT cell growth, CV-1; type: cell-based; conditions: non-CaP cell line
22Rv1 cells = test: MTT cell growth, 22Rv1; type: cell-based; conditions: six days; data not shown
ARE-luciferase = ARE-luciferase transactivation; type: cell-based
KLK2 [8] = test: Western blot of AR-regulated protein expression; type: cell-based; conditions: CaP cell lines

C[C@]12CCC3C(CC[C@H]4C[C@H](O)CC[C@]34C)C1CC[C@@H]2OCC(=O)NCCc1cc(=O)oc2c3c4c(cc12)CCCN4CCC3 (stereo partly drawn) [DIOL-17C, N-2′-(2,3,4,5-Tetrahydro-1H,4H-10-keto-11-oxa-3α-azabenzo[de]anthracenyl)ethyl (3α-hydroxy-5α-androstan-17β-yl)glycolamide]
3α-oxidoreductase metabolism to DHT-17C (3α-oxidoreductase): did not impair 3α-oxidoreductase metabolism of DIOL-17C to DHT-17C
free DIOL and orphan coumarin produced by cells (3α-oxidoreductase): No orphan fluorophores were detected
CaP cell growth (MTT) (VCaP cells; 20 nM, 6 days in SFM, FIG. 14 VCaP): impaired CaP cell growth
competition for RDH16-YFP (RDH16-YFP [1]): compete for RDH16-YFP
co-localization with RDH16-YFP and DRAQ5 in the nucleus (RDH16-YFP [2]): co-localized with RDH16-YFP

C[C@]12CCC3C(CC[C@H]4CC(=O)CC[C@]34C)C1CC[C@@H]2OCC(=O)NCCc1cc(=O)oc2c3c4c(cc12)CCCN4CCC3 (stereo partly drawn) [DHT-17C, N-2′-(2,3,4,5-Tetrahydro-1H,4H-10-keto-11-oxa-3α-azabenzo[de]anthracenyl)ethyl (3-keto-5α-androstan-17β-yl)glycolamide]
DU145 cell growth (MTT) (DU145 cells): did not impair cell growth
nuclear co-localization with AR-GFP and DRAQ5 (AR-GFP [3]): co-localized with AR-GFP
dose lower than enzalutamide for VCaP growth inhibition (VCaP cells; DHT-17C 20 nM vs enzalutamide 20 μM, AR-V7 positive VCaP): 1000 ×
VCaP cell growth impairment versus enzalutamide (VCaP cells; DHT-17C at 1, 12, 20, 50 or 100 nM): impaired VCaP cell growth to similar extents as enzalutamide
VCaP cell growth (MTT) (VCaP cells; six days, DHT-17C at 20 nM, DHT-3C at 20 nM): impaired VCaP and CWR-R1 cell growth
VCaP cell growth, combination with bicalutamide (VCaP cells; six days, bicalutamide 10 μM, p-values<0.05): enhanced the effect of bicalutamide
KLK2 transcript induction (KLK2 [4]): did not induce KLK2 transcript formation
LAPC-4 cell growth (MTT) (LAPC-4 cells): produced similar responses
competition for the AR-LBD of wild-type AR (AR-GFP [5]): compete for the AR-LBD of wild-type AR and AR-V2
LNCaP cell growth (MTT) (LNCaP cells): produced similar responses
competition for the AR-LBD of AR-V2 (AR-V2): compete for the AR-LBD of wild-type AR and AR-V2
293 cell growth (MTT) [6]: did not impair cell growth
PC-3 cell growth (MTT) (PC-3 cells): did not impair cell growth
CWR-R1 cell growth (MTT) (CWR-R1 cells; DHT-17C at 20 nM, DHT-3C at 20 nM): impaired VCaP and CWR-R1 cell growth
CWR-R1 cell growth, combination with bicalutamide (CWR-R1 cells; bicalutamide 10 μM, p-values<0.05): enhanced the effect of bicalutamide
co-localization with AR-V2-GFP (AR-V2-GFP): co-localized with DRAQ5 and AR-V2-GFP
CV-1 cell growth (MTT) [7]: did not impair cell growth
22Rv1 cell growth (MTT) (22Rv1 cells): produced similar responses

C[C@]12CC[C@@H](O)C[C@@H]1CC[C@@H]1[C@@H]2CC[C@]2(C)[C@@H](O)CC[C@@H]12 [DIOL, 5α-androstane-3α,17β-diol, reference compound]
competition for RDH16-YFP (RDH16-YFP [1]): compete for RDH16-YFP
ARE-luciferase signal (ARE-luciferase): produced ARE-luciferase signal

C[C@]12CCC(=O)C[C@@H]1CC[C@@H]1[C@@H]2CC[C@]2(C)[C@@H](O)CC[C@@H]12 [DHT, 5α-dihydrotestosterone, reference compound]
AR-regulated protein expression levels (KLK2 [8]): produced similar AR-regulated protein expression levels
KLK2 transcript induction (KLK2 [4]): produced similar inductions of expression
ARE-luciferase signal (ARE-luciferase): produced ARE-luciferase signal
